# Where two headings read alike, the source gives them in different places.
# B1: tACE-wt: wild-type human testis ACE (SEQ ID NO: 1) retaining its 36-residue N-terminus, transmembrane region and juxtamembrane stalk, expressed in CHO cells (protein, listed as Homo sapiens)
# chain: SQQVTVTHGTSSQATTSSQTTTHQATAHQTSAQSPNLVTDEAEASKFVEEYDRTSQVVWNEYAEANWNYNTNITTETSKILLQKNMQIANHTLKYGTQARKFDVNQLQNTTIKRIIKKVQDLERAALPAQELEEYNKILLDMETTYSVATVCHPNGSCLQLEPDLTNVMATSRKYEDLLWAWEGWRDKAGRAILQFYPKYVELINQAARLNGYVDAGDSWRSMYETPSLEQDLERLFQELQPLYLNLHAYVRRALHRHYGAQHINLEGPIPAHLLGNMWAQTWSNIYDLVVPFPSAPSMDTTEAMLKQGWTPRRMFKEADDFFTSLGLLPVPPEFWNKSMLEKPTDGREVVCHASAWDFYNGKDFRIKQCTTVNLEDLVVAHHEMGHIQYFMQYKDLPVALREGANPGFHEAIGDVLALSVSTPKHLHSLNLLSSEGGSDEHDINFLMKMALDKIAFIPFSYLVDQWRWRVFDGSITKENYNQEWWSLRLKYQGLCPPVPRTQGDFDPGAKFHIPSSVPYIRYFVSFIIQFQFHEALCQAAGHTGPLHKCDIYQSKEAGQRLATAMKLGFSRPWPEAMQLITGQPNMSASAMLSYFKPLLDWLRTENELHGEKLGWPQYNWTPNSARSEGPLPDSGRVSFLGLDLDAQQARVGQWLLLFLGIALLVATLGLSQRLFSIRHRSLHRHSHGPQFGSEVELRHS
# What was measured:
# tACE [1] = target: T1, tACE (Homo sapiens, UniProt P12821); assay: Kinetic constants for tACE hydrolysis of hippuryl-L-histidyl-L-leucine (Hip-His-Leu); format: biochemical; details: cells expressing tACEΔ36NJ treated with the glucosidase I inhibitor
# T1 construct: made in house; host or cells: CHO-K1 cells, stably transfected; soluble enzyme purified from the medium
# Experimental: (§1) Soluble, recombinant tACE (wild-type […], ACEΔ36NJ (SEQ ID NO: 2) and ACE glycosylation mutants), is purified from conditioned media by affinity chromatography on a Sepharose-28-lisinopril affinity resin. The protein is quantitated by amino acid analysis and assayed for activity using the substrate hippuryl-L-histidyl-L-leucine , as described (Ehlers, MRE, Chen, Y—N, Riordan, JF (1991) Proc Natl Acad Sci USA 88, 1009-1013).
# (§2) Assays are performed in 100 mM potassium phosphate pH 8.3 containing 300 mM NaCl. Initial velocities are calculated over a range of Hip-His-Leu concentrations (0.2-5.0 mM) under initial rate conditions and fit to the Michaelis-Menten equation. Km and Vmax values are determined by non-linear regression analysis.
# [2] = cited from earlier work
# tACE glycosylation = assay: Inhibition of tACE glycosylation in presence of tunicamycin (cellular ACE activity, Western blot); format: cell-based; details: CHO cells expressing tACE-wt, 5 μg/ml tunicamycin
# Experimental: CHO cells expressing tACE-wt are grown to confluence in 6-well plates and induced overnight in 2% medium in the absence and presence of 5 μg/ml tunicamycin. Fresh medium is added and cells are grown in the absence and presence of 5 μg/ml tunicamycin. At 6, 8, 12, 16, 20 and 24 hours detergent-solubilised cell samples are collected. After separating the proteins on 10% SDS-PAGE they are immunodetected by Western blotting.
# tACE-wt (SEQ ID NO: 1), tACEΔ36, tACEΔ36-g1, -g2, -g3, -g12, -g13, -g23, -g123 and -g1234 are immunodetected by Western blotting of cell lysates and harvested medium from transfected CHO cells. Proteins are separated on 10% SDS-PAGE and transferred to nitrocellulose membrane (Hybond-C, Amersham). The membrane is probed with a polyclonal rabbit anti-human tACE antibody. The membrane is developed using the ECL chemiluminescence kit (Amersham) and visualised on autoradiographic film, as per instructions.
# tACE [3] = assay: Kinetic constants for tACE hydrolysis of hippuryl-L-histidyl-L-leucine (Hip-His-Leu); format: biochemical, human; details: hydrolysis of Hip-His-Leu
# Experimental: as §1, §2
molecule,measurement,setting,value
"CCCCN1C[C@H](O)[C@@H](O)[C@H](O)[C@H]1CO [NB-DNJ, N-butyldeoxynojirimycin]",Effect of treating the expressing cells on kinetic properties of the expressed enzymes,tACE [1],do not alter the kinetic properties
CCOC(=O)[C@H](CCc1ccccc1)N[C@@H](C)C(=O)N1CCC[C@H]1C(=O)O [enalapril],Risk of hospitalization for heart failure,[2]; similar black patients,no such effect
same,Risk of hospitalization for heart failure,[2]; white patients with left ventricular function,significant reduction
tunicamycin,"Formation of mature, glycosylated tACE-wt (Western blot)",tACE glycosylation,partially inhibits
same,Cellular tACE-wt activity in treated versus untreated cells,tACE glycosylation; data not shown,approximately three-fold lower
B1,Km,"tACE [3]; 100 mM potassium phosphate pH 8.3, 300 mM NaCl",2700 µM
same,kcat,tACE [3]; calculated molecular mass of 100 kDa,193 s⁻¹

# From patent US8594947B2, “Crystal structure of an angiotensin-converting enzyme (ACE) and uses thereof” (University of Bath, priority 2002, dated 2013)
